Consider 7 compounds from ChEMBL document CHEMBL5032540, “Design, Synthesis, and Biological Evaluation of Novel EGFR PROTACs Targeting Del19/T790M/C797S Mutation” (ACS Med Chem Lett, 2022).

Assay [1] relates to BaF3. Description: Antiproliferative activity against mouse BaF3 cells expressing EGFR del19/T790M/C797S triple mutant assessed as cell growth inhibition measured after 72 hrs by CCK8 assay. The class given is functional, cell-based. To be noted: BaF3, 72 h. (Formazan colour is commonly taken as a measure of viable cells.)
Assay [2] concerns BaF3. The assay can be described thus: Induction of EGFR del19/T790M/C797S triple mutant degradation in mouse BaF3 cells at 0.1 uM measured after 3 hrs by Western blot analysis relative to control. In kind it is cell-based. On the technique in general: Immunoblotting shows a protein as a band on a membrane.
Assay [3] deals with BaF3. Description: Induction of EGFR del19/T790M/C797S triple mutant degradation in mouse BaF3 cells at 0.01 uM measured after 3 hrs by Western blot analysis relative to control. In kind it is cell-based.
Assay [4] relates to BaF3. Description: Induction of EGFR del19/T790M/C797S triple mutant degradation in mouse BaF3 cells at 0.01 to 0.1 uM measured after 3 hrs by Western blot analysis. In kind it is cell-based. To be noted: dose 0.01-0.1 µM.
Assay [5] has as its system BaF3. The assay can be described thus: Induction of EGFR del19/T790M/C797S triple mutant degradation in mouse BaF3 cells at 0.1 uM preincubated for 2 hrs with proteosome inhibitor MG132 followed by compound addition and measured after 3 hrs by Western blot analysis. The class given is cell-based.
In assay [6] the test system is Epidermal growth factor receptor (Homo sapiens), P00533 [UNDEFINED MUTATION]. The assay can be described thus: Induction of EGFR del19 mutant degradation in human HCC827 cells assessed as decrease in EGFR protein level at 0.005 to 0.5 uM measured after 3 hrs by Western blot assay. In kind it is cell-based. To be noted: dose 0.005-0.5 µM.
The target in assay [7] is EML4-ALK (Homo sapiens) (UniProt Q9UM73+Q9HC35). Description: Induction of EML4-ALK fusion protein degradation in mouse BaF3 cells at 0.001 to 10 uM after 3 hrs by Western blot analysis. In kind it is cell-based. To be noted: dose 0.001-10 µM.
Sequence of EML4-ALK (Homo sapiens) (Q9HC35 whole entry partner, the tested form may be a part): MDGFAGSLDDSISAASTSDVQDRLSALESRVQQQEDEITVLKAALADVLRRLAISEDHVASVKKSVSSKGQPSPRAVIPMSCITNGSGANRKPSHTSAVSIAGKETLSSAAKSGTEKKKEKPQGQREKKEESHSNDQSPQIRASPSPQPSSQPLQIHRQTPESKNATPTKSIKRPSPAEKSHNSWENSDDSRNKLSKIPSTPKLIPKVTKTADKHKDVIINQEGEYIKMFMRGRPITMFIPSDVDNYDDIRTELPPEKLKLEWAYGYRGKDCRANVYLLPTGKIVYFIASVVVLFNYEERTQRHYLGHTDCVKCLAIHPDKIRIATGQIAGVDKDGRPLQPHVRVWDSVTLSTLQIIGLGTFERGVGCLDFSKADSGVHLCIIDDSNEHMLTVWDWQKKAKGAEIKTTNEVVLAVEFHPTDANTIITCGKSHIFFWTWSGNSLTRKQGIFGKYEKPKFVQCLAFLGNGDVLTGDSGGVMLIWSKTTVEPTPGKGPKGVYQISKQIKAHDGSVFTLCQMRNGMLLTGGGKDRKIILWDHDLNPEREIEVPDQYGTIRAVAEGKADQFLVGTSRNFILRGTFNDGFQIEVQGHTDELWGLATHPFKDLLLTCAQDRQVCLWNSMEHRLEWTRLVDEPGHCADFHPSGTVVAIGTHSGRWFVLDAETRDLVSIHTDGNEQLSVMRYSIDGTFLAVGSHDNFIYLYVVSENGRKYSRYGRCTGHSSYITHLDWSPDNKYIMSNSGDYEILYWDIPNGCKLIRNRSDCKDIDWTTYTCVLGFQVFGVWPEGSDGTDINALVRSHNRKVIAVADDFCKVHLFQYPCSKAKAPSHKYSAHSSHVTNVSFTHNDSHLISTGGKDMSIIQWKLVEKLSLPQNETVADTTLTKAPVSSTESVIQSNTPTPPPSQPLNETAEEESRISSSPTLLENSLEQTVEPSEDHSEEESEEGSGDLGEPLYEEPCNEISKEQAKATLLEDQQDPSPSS
Sequence of EML4-ALK (Homo sapiens) (Q9UM73 19-1620 limits assumed): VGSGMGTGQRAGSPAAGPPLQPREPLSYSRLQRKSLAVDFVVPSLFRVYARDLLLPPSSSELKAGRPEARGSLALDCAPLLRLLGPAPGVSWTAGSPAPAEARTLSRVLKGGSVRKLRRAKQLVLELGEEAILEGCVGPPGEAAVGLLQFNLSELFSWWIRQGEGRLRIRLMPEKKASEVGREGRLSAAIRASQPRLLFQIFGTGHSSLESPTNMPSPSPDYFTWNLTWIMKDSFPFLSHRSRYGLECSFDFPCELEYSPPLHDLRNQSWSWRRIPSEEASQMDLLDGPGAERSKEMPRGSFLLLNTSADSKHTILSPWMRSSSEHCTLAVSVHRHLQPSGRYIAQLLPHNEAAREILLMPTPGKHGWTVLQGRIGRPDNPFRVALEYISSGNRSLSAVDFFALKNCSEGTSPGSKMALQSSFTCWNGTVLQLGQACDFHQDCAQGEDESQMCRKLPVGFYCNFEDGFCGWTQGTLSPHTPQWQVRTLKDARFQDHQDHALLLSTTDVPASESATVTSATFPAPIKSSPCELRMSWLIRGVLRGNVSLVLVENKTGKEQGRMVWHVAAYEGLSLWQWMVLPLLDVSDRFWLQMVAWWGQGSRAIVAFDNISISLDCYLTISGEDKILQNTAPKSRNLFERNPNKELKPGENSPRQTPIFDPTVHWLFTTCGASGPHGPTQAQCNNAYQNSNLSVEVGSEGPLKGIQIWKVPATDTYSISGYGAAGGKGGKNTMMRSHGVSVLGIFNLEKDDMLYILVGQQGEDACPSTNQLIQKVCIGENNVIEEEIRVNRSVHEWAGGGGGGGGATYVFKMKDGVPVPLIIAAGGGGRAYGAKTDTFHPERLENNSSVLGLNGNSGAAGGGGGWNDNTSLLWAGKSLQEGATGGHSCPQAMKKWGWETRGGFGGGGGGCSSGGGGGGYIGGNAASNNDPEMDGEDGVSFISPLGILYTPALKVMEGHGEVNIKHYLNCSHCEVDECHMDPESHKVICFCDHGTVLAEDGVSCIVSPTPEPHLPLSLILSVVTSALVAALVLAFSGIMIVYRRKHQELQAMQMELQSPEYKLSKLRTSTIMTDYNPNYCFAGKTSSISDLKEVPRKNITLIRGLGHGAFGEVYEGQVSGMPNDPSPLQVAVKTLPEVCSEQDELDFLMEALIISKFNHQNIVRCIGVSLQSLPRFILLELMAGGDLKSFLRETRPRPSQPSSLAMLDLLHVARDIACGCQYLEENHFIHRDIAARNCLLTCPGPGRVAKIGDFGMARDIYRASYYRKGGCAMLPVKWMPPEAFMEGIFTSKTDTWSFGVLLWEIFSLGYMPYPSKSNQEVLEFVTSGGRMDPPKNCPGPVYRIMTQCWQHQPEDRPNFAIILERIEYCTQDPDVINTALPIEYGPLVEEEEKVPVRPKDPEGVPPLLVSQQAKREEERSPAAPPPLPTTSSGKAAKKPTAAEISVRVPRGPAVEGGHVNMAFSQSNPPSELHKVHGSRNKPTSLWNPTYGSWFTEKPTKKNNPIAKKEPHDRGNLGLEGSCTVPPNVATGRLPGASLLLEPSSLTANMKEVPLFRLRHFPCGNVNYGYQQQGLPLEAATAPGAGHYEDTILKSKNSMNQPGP
Assay [8] concerns A-431. Description: Antiproliferative activity against human A-431 cells expressing wild-type EGFR assessed as cell growth inhibition after 72 hrs by CCK-8 assay. In kind it is functional, cell-based. To be noted: A-431, 72 h.
Assay [9] relates to BaF3. Description: Induction of EGFR del19/T790M/C797S triple mutant degradation in mouse BaF3 cells at 0.1 uM measured after 3 to 24 hrs by Western blot analysis. In kind it is cell-based. To be noted: time 3-24 hrs.
Assay [10] deals with Epidermal growth factor receptor (Homo sapiens), P00533 [L858R]. The assay can be described thus: Induction of EGFR L858R mutant degradation in human […] cells assessed as decrease in EGFR protein level at 0.005 to 0.5 uM measured after 3 hrs by Western blot assay. In kind it is cell-based. To be noted: NCI-H3255, dose 0.005-0.5 µM.
Assay [11] relates to BaF3. The assay can be described thus: Induction of EGFR del19/T790M/C797S triple mutant degradation in mouse BaF3 cells at 0.1 uM preincubated for 3 hrs with VHL ligand 5 followed by compound addition and measured after 3 hrs by Western blot analysis. The class given is cell-based.
Assay [12] deals with BaF3. The assay can be described thus: Induction of EGFR del19/T790M/C797S triple mutant degradation in mouse BaF3 cells at 0.1 uM preincubated with compound for 3 hrs followed by compound washout and measured after 24 hrs by Western blot analysis. The class given is cell-based.
Assay [13] concerns the target Epidermal growth factor receptor (Homo sapiens) (UniProt P00533). Description: Induction of EGFR degradation in human A-431 cells assessed as decrease in EGFR protein level at 0.005 to 0.5 uM measured after 3 hrs by Western blot assay. The class given is cell-based. To be noted: dose 0.005-0.5 µM.
In assay [14] the test system is NCI-H3255. The assay can be described thus: Antiproliferative activity against human NCI-H3255 cells expressing L858R mutant assessed as cell growth inhibition after 72 hrs by CCK-8 assay. In kind it is functional, cell-based. To be noted: NCI-H3255, 72 h.
Assay [15] relates to BaF3. Description: Induction of EGFR del19/T790M/C797S triple mutant degradation in mouse BaF3 cells after 3 hrs by immunoblotting analysis. In kind it is cell-based. To be noted: dose 0.001-10 µM.
For assay [16], the system named is BaF3. Description: Induction of EGFR del19/T790M/C797S triple mutant degradation in mouse BaF3 cells at 1 uM after 3 hrs by immunoblotting analysis relative to control. In kind it is cell-based.
Assay [17] relates to BaF3. Description: Induction of EGFR del19/T790M/C797S triple mutant degradation in mouse BaF3 cells at 0.1 uM preincubated for 3 hrs with EGFR inhibitor 3 followed by compound addition and measured after 3 hrs by Western blot analysis. The class given is cell-based.
Assay [18] has as its system NCI-H1975. The assay can be described thus: Antiproliferative activity against human NCI-H1975 cells expressing EGFR L858R/T790M double mutant assessed as cell growth inhibition after 72 hrs by CCK-8 assay. In kind it is functional, cell-based. To be noted: NCI-H1975, 72 h.
Assay [19] concerns BaF3. Description: Inhibition of ERK phosphorylation in mouse BaF3 cells expressing EGFR del19/T790M/C797S triple mutant after 3 hrs by Western blot analysis. In kind it is cell-based. To be noted: dose 0.001-10 µM.
Assay [20] deals with RAC-alpha serine/threonine-protein kinase (Mus musculus) (UniProt P31750). The assay can be described thus: Inhibition of Akt phosphorylation in mouse BaF3 cells expressing EGFR del19/T790M/C797S triple mutant after 3 hrs by Western blot analysis. The class given is cell-based. To be noted: dose 0.001-10 µM.
Sequence of RAC-alpha serine/threonine-protein kinase (Mus musculus) (P31750 whole entry): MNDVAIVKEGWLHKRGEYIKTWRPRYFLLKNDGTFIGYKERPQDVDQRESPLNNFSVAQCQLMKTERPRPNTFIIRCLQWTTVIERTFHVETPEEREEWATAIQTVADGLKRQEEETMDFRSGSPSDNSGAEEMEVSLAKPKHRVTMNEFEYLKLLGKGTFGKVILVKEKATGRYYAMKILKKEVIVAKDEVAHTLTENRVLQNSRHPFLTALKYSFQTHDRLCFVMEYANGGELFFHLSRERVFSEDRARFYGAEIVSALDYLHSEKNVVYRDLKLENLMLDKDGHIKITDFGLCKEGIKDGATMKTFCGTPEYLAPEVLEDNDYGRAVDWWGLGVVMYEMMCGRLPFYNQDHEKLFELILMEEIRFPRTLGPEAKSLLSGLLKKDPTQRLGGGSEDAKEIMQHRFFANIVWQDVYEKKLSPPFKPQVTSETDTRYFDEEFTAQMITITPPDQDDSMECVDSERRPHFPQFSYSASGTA
Assay [21] deals with Epidermal growth factor receptor (Homo sapiens), P00533 [L858R,T790M]. Description: Induction of EGFR L858R/T790M mutant degradation in human NCI-H1975 cells assessed as decrease in EGFR protein level at 0.005 to 0.5 uM measured after 3 hrs by Western blot assay. To be noted: dose 0.005-0.5 µM. The class given is cell-based.
The test system of assay [22] is HCC827. The assay can be described thus: Antiproliferative activity against human HCC827 cells expressing EGFR del19 mutant assessed as cell growth inhibition after 72 hrs by CCK-8 assay. To be noted: HCC827, 72 h. In kind it is functional, cell-based.

Calls of active or inactive are those of the source. The calls are words filed in the database; no cut-off is given here.

The term IC50 denotes the concentration that inhibits the measured activity by half.

In the case of `COc1cc(N2CCN(CCCCCC(=O)N[C@H](C(=O)N3C[C@H](O)C[C@H]3C(=O)N[C@@H](C)c3ccc(-c4scnc4C)cc3)C(C)(C)C)CC2)ccc1Nc1ncc(Cl)c(Nc2ccccc2S(=O)(=O)C(C)C)n1`, in assay [1], the IC50 was determined as 240 nM. The Activity was 56.9% in [2] and 48.5% in [3].

On to `COc1cc(N2CCN(CCCCCCCC(=O)N[C@H](C(=O)N3C[C@@H](O)C[C@H]3C(=O)N[C@@H](C)c3ccc(-c4scnc4C)cc3)C(C)(C)C)CC2)ccc1Nc1ncc(Cl)c(Nc2ccccc2P(C)(C)=O)n1`, for which the outcome in assay [4] was inactive.

On to `COc1cc(C2CCN(CCCCCC(=O)N[C@H](C(=O)N3C[C@H](O)C[C@H]3C(=O)N[C@@H](C)c3ccc(-c4scnc4C)cc3)C(C)(C)C)CC2)ccc1Nc1ncc(Cl)c(Nc2ccccc2N(C)S(C)(=O)=O)n1`, for which, in assay [1], the IC50 is 70 nM. The results for the Activity in [2] and in [3] were 74.1% and 58.4%, respectively.

`COc1cc(N2CCN(CCCCCC(=O)N[C@H](C(=O)N3C[C@H](O)C[C@H]3C(=O)N[C@@H](C)c3ccc(-c4scnc4C)cc3)C(C)(C)C)CC2)ccc1Nc1ncc(Cl)c(Nc2ccccc2P(C)(C)=O)n1`: in assay [1], the IC50 turned out to be 50 nM. In addition, the Activity is 75.4% in assay [2] and 53.7% in [3].

For `COc1cc(C2CCN(CCCCCC(=O)N[C@H](C(=O)N3C[C@H](O)C[C@H]3C(=O)N[C@@H](C)c3ccc(-c4scnc4C)cc3)C(C)(C)C)CC2)ccc1Nc1ncc(Cl)c(Nc2ccccc2NS(C)(=O)=O)n1`, the IC50 in [1] worked out at 370 nM. Moreover, the Activity in assay [2] amounted to 35.2%; in assay [3], 14%.

Take `COc1cc(N2CCN(CCCC(=O)N[C@H](C(=O)N3C[C@H](O)C[C@H]3C(=O)N[C@@H](C)c3ccc(-c4scnc4C)cc3)C(C)(C)C)CC2)ccc1Nc1ncc(Cl)c(Nc2ccccc2P(C)(C)=O)n1`: in [1], the IC50 came out at 370 nM. The values for the Activity in [2] and in [3] were 22.7% and 6.2%, respectively.

On to `COc1cc(N2CCN(CCCCCCCC(=O)N[C@H](C(=O)N3C[C@H](O)C[C@H]3C(=O)N[C@@H](C)c3ccc(-c4scnc4C)cc3)C(C)(C)C)CC2)ccc1Nc1ncc(Cl)c(Nc2ccccc2P(C)(C)=O)n1`, for which the outcome in [5], in [7], in assay [10], in [11], in assay [13] and in assay [17] was inactive. The result in [21] was inactive. The outcome in assay [6], in [9] and in [12] was Active. For the same compound, the IC50 in [1] came out at 20 nM; in assay [8], 526 nM; in [14], 604 nM; in assay [18] it was 1130 nM; in assay [22], 229 nM. Moreover, the Activity was 79.1% in assay [2], 52% in assay [3], “Dose-Dependent Effect” in assay [15] and 49.6% in [16]. Also, the inhibition entry in assay [19] and in assay [20] was “Dose-Dependent Effect” each time.
